{"source": "patent US6762193B1", "about": "“Method of treating hair loss” (priority 2000, dated 2004)", "type_in_all_cases": "in vivo, human", "key": {"[1]": {"test_system": "acne vulgaris/acne rosacea", "test": "Inception cohort investigational study of zafirlukast in acne vulgaris/acne rosacea patients", "text": "This study was designed to evaluate the effectiveness in treating acne vulgaris with the drug zafirlukast After having established a mechanism by which zafirlukast would be effective in the treatment of acne vulgaris, and subsequently treating a single case of acne conglobata successfully during the summer and fall of 1999, this study was purposely designed to evaluate the treatment of acne vulgaris with the drug zafirlukast\nObjective: To determine if the anti-leukotriene zafirlukast is effective in the treatment of acne vulgaris/acne rosacea.\nDesign: Inception cohort investigational study conducted from October 1999 to January 2000.\nSetting: Rural Family Practice clinic in Waldheim, La.\nParticipants: A total of 7 male and 8 female patients aged 12-45 years diagnosed with mild, moderate, or severe acne vulgaris including one case of acne conglobata and 2 cases of acne rosacea were given 20 mg. of zafirlukast (ACCOLATE® brand from AstraZeneca) twice daily from week 1 through week 4. The dose was increased to 30 mg. twice daily at week 4 and continued through week 8. At week 8 the dose of zafirlukast was decreased to 20 mg twice daily and continued until the termination of the study at 10 weeks.\nBetween the months of October and November 1999 both adolescent and adult patients were recruited consecutively at a family practice clinic in rural Louisiana to participate in an investigational study to determine the effectiveness of zafirlukast in the treatment of acne vulgarism Those patients who provided informed consent and who have reported a prior medical diagnosis of acne vulgaris were enlisted into the study. This cohort was composed of a total of seven male and eight female Caucasian patients, age twelve to forty five years, diagnosed with mild, moderate or severe acne vulgaris.\nPre-study recruitment assessment data was consistent with the following: one of fifteen patients was diagnosed with acne conglobata; two of fifteen patients were […] with acne rosacea, one of which had acne scars who had previously been treated with oral isotretinoin for nodular-cystic acne; eleven of fifteen patients with moderate to severe inflammatory/nodular-cystic acne; all patients had self medicated with topical comedolytic over-the-counter agents; three of fifteen patients had never been treated with prescription (topical or systemic) medications; twelve of fifteen patients were prescribed a range of three to five medical prescriptions (both topical and systemic) with varying degrees of success and failure; three of fifteen patients had previously taken oral isotretinoin; two of fifteen patients had been offered oral isotretinoin but refused that treatment.\nInclusion criteria for study enlistment encompassed any patient who was requesting medical treatment of a chief complaint of acne dermatitis, coincident with a clinical diagnosis of acne vulgaris confirmed by physical examination. These patients voluntarily agreed to be treated with zafirlukast knowing that alternative treatment (both topical and systemic) were available. At the initial visit all patients were instructed on the use of zafirlukast This was to be administered by mouth twice daily. The potential side effects, potential adverse reactions, and other risks were all explained. Patients all agreed to avoid any over-the-counter acne preparations and were to use any household soft-soap product to wash the facial skin twice daily. Zafirlukast was to be administered at the dose of 20 mg. twice daily from week one through week four and then to be increased to 30 mg. twice daily at week four and continued through week eight. At week eight the dose of zafirlukast was to be decreased to 20 mg. taken twice daily and continued until the completion of the study at ten weeks.\nMain Outcome Measures: Subjective and objective medical examination and qualitative photographic analysis were employed at each patients initial visit to establish baseline. […]"}, "dihydrotestosterone": {"test_system": "dihydrotestosterone", "test": "Serum dihydrotestosterone level in patients treated with zafirlukast", "procedure": "(§1) During the summer of 2000 an investigative study was initiated to determine the efficacy of zafirlukast in the treatment of androgenetic alopecia A middle aged blond haired person whom was actively undergoing genetically influenced alopecia was recruited and voluntarily enlisted into the study under informed consent. […] Just two months earlier serum luteinizing hormone, total testosterone, androstenedione and dehydroepiandrosterone sulfate levels were determined to be normal. Having considered that dihydrotestosterone levels may have been suppressed to a low normal range, as pre treatment dihydrotestosterone serum determination had not been performed, the dose of zafirlukast was increased to 40 mg taken by mouth twice daily. Continuing this dose for a one month period of time, serum dihydrotestosterone levels were reanalized and determined to be 21 NG/DL (normal 25 to 75 NG/DL). […] The patient was then withdrawn, from zafirlukast therapy and there were no specific complications or side effects during a one month abstinence from zafirlukast and serum dihydrotestosterone levels were redetermined and found to be 15 NG/DL (normal 25 to 75 NG/DL). This patient was then given the option to continue treatment with zafirlukast at a dose of 40 mg taken by mouth twice daily for the treatment of androgenic alopecia and decided to do so as they had witnessed the continued regrowth of hair and remission of hair loss while taking zafirlukast. […] The results are as follows:\nIn person one undergoing treatment for Grade IV cystic acne vulgaris with zafirlukast at 40 mg po bid (by mouth twice a day) for 4 weeks, preceded by 2 weeks of zafirlukast treatment at 30 mg bid, their serum dihydrotestosterone level was determined to be 16 NG/DL (normal was 25 to 75 NG/DL).\n(§2) In person two undergoing treatment with zafirlukast at 40 mg po bid for hereditary balding, their pretreatment dihydrotestosterone level was 5 NG/DL (normal 5 to 30 NG/DL); after 4 weeks of continuous treatment their dihydrotestosterone serum concentration was 4 NG/DL (normal 5 to 30 NG/DL) and at 6 weeks of continued treatment their serum dihydrotestosterone level was determined to be less than 3 NG/DL."}, "[2]": {"test_system": "Grade IV cystic acne vulgaris", "test": "Zafirlukast treatment of a patient with Grade IV cystic acne vulgaris", "settings": "person one, 40 mg po bid"}, "androgenetic alopecia": {"test_system": "androgenetic alopecia", "test": "Investigative study of zafirlukast in androgenetic alopecia / hereditary balding (hair loss and regrowth)", "procedure": "as §1, §2"}, "[3]": {"test": "Serum ancillary hormone and liver function studies during zafirlukast treatment", "procedure": "During the summer of 2000 an investigative study was initiated to determine the efficacy of zafirlukast in the treatment of androgenetic alopecia A middle aged blond haired person whom was actively undergoing genetically influenced alopecia was recruited and voluntarily enlisted into the study under informed consent. […] Just two months earlier serum luteinizing hormone, total testosterone, androstenedione and dehydroepiandrosterone sulfate levels were determined to be normal. Having considered that dihydrotestosterone levels may have been suppressed to a low normal range, as pre treatment dihydrotestosterone serum determination had not been performed, the dose of zafirlukast was increased to 40 mg taken by mouth twice daily. Continuing this dose for a one month period of time, serum dihydrotestosterone levels were reanalized and determined to be 21 NG/DL (normal 25 to 75 NG/DL). […] The patient was then withdrawn, from zafirlukast therapy and there were no specific complications or side effects during a one month abstinence from zafirlukast and serum dihydrotestosterone levels were redetermined and found to be 15 NG/DL (normal 25 to 75 NG/DL). This patient was then given the option to continue treatment with zafirlukast at a dose of 40 mg taken by mouth twice daily for the treatment of androgenic alopecia and decided to do so as they had witnessed the continued regrowth of hair and remission of hair loss while taking zafirlukast. […]\nIn this study a dose and time dependent effect has been identified with the treatment of both acne vulgaris and common baldness in genetically susceptible men and women without physical or psychological compromise, or forfeit of quality of life. […] Serum liver function studies monitored during this study remained in the normal range of value except in one patient with known Hepatitis C and abnormal pretreatment liver function studies; however, in all patients including the one patient with Hepatitis C, serum liver function studies improved with zafirlukast treatment possibly indicating a role in treating liver diseases in the future."}}}
{"molecule": "COc1cc(C(=O)NS(=O)(=O)c2ccccc2C)ccc1Cc1cn(C)c2ccc(NC(=O)OC3CCCC3)cc12", "note": "[zafirlukast]", "values": [{"measurement": "added benefit of higher dose", "setting": "[1]; 30 mg twice daily from week 4 thru week 8 versus 20 mg twice daily", "value": "no added benefit"}, {"measurement": "acne remission during the study", "setting": "[1]; 15 patients, 20-30 mg twice daily oral, 10 weeks", "value": "all participants attained periods of acne remission"}, {"measurement": "time to subjective and objective clinical improvement", "setting": "[1]; after initiating zafirlukast therapy, routinely, observed as early as two weeks", "value": "3-4 weeks"}, {"measurement": "time to acne reoccurrence in consistently non-compliant patients", "setting": "[1]; after more than 2-3 doses missed", "value": "2 to 3", "unit": "days"}, {"measurement": "reduction of perilesional erythema", "setting": "[1]; by week eight", "value": "80-90%"}, {"measurement": "reduction of perilesional erythema", "setting": "[1]; by week four", "value": "40-50%"}, {"measurement": "resolution of perilesional erythema", "setting": "[1]; by week two", "value": "10-15%"}, {"measurement": "reoccurrence of acne form lesions after discontinuation", "setting": "[1]; discontinuation of therapy over a 5-7 day period", "value": "equal to baseline levels"}, {"measurement": "remission in the one patient compliant throughout the entire study", "setting": "[1]; fully compliant patient", "value": "complete remission"}, {"measurement": "side effects", "setting": "[1]; one participant with acne rosacea, taken on an empty stomach, only participant with side effects, none at 10 mg twice daily", "value": "asthenia"}, {"measurement": "serum dihydrotestosterone level", "setting": "dihydrotestosterone; person one, 40 mg po bid for 4 weeks preceded by 2 weeks at 30 mg bid, normal 25 to 75", "value": 16, "unit": "ng/dL"}, {"measurement": "dihydrotestosterone serum concentration", "setting": "dihydrotestosterone; person two, 40 mg po bid, after 4 weeks, pretreatment 5, normal 5 to 30", "value": 4, "unit": "ng/dL"}, {"measurement": "serum dihydrotestosterone level", "setting": "dihydrotestosterone; person two, 40 mg po bid, at 6 weeks", "value": "less than 3 NG/DL"}, {"measurement": "serum dihydrotestosterone level", "setting": "dihydrotestosterone; person, 20 mg twice daily, completion of fourth month, normal 25 to 75", "value": 32, "unit": "ng/dL"}, {"measurement": "serum dihydrotestosterone level", "setting": "dihydrotestosterone; person, 40 mg twice daily for one month, normal 25 to 75", "value": 21, "unit": "ng/dL"}, {"measurement": "serum dihydrotestosterone level", "setting": "dihydrotestosterone; person, after one month abstinence from zafirlukast, normal 25 to 75", "value": 15, "unit": "ng/dL"}, {"measurement": "acne lesion remission and clearing", "setting": "[2]", "value": "significant improvement"}, {"measurement": "side effects or adversities", "setting": "androgenetic alopecia; person one (acne) and person two (balding), 40 mg po bid", "value": "never witnessing any side effects or adversities"}, {"measurement": "regrowth of frontal hair", "setting": "androgenetic alopecia; person two, 40 mg po bid", "value": "regrowth of frontal hair"}, {"measurement": "regrowth of hair", "setting": "androgenetic alopecia; person, 20 mg twice daily, by the fourth month", "value": "regrowth of hair in the area of temporat and vertex balding was observed"}, {"measurement": "occurrence of hair loss", "setting": "androgenetic alopecia; person, 20 mg twice daily, within the first 6 weeks", "value": "less occurrence of hair loss"}, {"measurement": "side effects", "setting": "androgenetic alopecia; person, 20-40 mg twice daily", "value": "never any side effects observed"}, {"measurement": "serum liver function studies", "setting": "[3]; all patients including one with Hepatitis C", "value": "improved"}, {"measurement": "serum luteinizing hormone, total testosterone, androstenedione and dehydroepiandrosterone sulfate levels", "setting": "[3]; person, 20 mg twice daily, about second month", "value": "normal"}, {"measurement": "serum 3-alpha androstanediol glucuronide, estrone, androstenedione, total testosterone, prostate specific antigen, and progesterone levels", "setting": "[3]; person, 40 mg twice daily for one month", "value": "within normal limits"}]}
